Data taken from patent US20250382298A1, “NITROGEN-CONTAINING COMPOUND AND USE THEREOF” (SUZHOU GENHOUSE BIO CO., LTD., priority 2022, published 2025).

Molecular target: hERG potassium channel (Homo sapiens (Human), UniProt Q12809)
Assay: hERG whole-cell patch clamp (Qpatch) in HEK293 cells
Assay type: cell-based
Details: top concentration 30 μM
Protocol: HEK293 cells were cultured in a DMEM medium containing 10% fetal bovine serum and 0.8 mg/mL G418 at 37° C. with 5% CO2. The cells were digested by TrypLE™ Express and then centrifuged. The cell density was adjusted to 2×10^6 cells/ml. The cells were then gently mixed for 15-20 min using a shaker equilibrated at room temperature, and subjected to patch clamping on a machine. The medium of the prepared cells was replaced with extracellular fluid. The intracellular fluid and the extracellular fluid were taken from the fluid pool, and added to the intracellular fluid pool and the cell and test substance pool of the QPlate chip, respectively. The voltage stimulation of the whole-cell hERG potassium current was recorded by the whole-cell patch clamp, and the experimental data was collected and stored by Qpatch. The test compound was 3-fold diluted starting from 30 μM to obtain 6 concentration points, each for two administrations over a period of at least 5 min. The current detected in compound-free extracellular fluid for each cell served as its own control group, and the detection was repeated at least twice independently using two cells per concentration. All electrophysiological experiments were performed at […].
For data analysis, the current after the action of each drug concentration and the current of the blank control were standardize
and then the inhibition rate corresponding to each drug concentration was calculated
The mean and standard error were calculated for each concentration, and the half maximal inhibitory concentration of each compound was calculated:
The dose-dependent effect was subjected to non-linear fitting using the above equation, where Y represents the inhibition rate, C represents the concentration of the test substance, IC50 is the half maximal inhibitory concentration, and HillSlope represents the Hill coefficient. Curve fitting and calculation of IC50 were performed using the Graphpad software.

hERG potassium channel, sequence (Q12809 whole entry): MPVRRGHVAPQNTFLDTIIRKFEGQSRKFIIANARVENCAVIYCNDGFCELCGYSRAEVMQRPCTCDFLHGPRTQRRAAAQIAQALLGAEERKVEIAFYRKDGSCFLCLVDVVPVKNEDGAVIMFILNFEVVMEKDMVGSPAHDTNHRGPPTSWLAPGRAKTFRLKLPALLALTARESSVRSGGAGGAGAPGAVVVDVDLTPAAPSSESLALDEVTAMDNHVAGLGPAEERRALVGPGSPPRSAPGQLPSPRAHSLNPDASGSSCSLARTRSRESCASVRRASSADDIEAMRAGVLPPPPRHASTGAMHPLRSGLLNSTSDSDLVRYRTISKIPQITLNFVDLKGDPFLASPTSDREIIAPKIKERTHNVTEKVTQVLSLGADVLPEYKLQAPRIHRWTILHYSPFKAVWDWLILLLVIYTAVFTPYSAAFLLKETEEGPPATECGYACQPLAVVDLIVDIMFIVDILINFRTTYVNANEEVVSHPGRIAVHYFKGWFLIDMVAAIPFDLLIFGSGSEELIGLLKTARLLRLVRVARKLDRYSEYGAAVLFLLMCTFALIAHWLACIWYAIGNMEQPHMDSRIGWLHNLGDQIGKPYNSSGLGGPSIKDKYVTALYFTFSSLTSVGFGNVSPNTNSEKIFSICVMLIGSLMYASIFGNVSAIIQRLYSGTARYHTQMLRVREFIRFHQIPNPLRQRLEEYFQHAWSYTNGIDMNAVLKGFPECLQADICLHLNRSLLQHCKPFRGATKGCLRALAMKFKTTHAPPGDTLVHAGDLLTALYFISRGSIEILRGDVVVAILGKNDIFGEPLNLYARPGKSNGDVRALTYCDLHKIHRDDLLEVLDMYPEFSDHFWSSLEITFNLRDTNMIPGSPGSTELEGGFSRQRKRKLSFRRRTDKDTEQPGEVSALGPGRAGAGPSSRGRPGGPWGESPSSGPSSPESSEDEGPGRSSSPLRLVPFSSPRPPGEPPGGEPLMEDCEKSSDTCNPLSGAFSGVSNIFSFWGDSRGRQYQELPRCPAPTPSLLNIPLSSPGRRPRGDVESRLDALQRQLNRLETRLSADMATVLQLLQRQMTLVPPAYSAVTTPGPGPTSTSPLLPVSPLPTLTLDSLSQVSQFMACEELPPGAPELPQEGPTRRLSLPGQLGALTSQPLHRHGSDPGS

SMILES | IC50 [µM]
O=C(Nc1cc2ccccc2c(N2CCC(F)(F)CC2)n1)c1ccc(NS(=O)(=O)CCO)cc1N1CCC2(CC1)CC2 [Compound 6] | > 30
O=C(Nc1cn2ccnc2c(N2CCC(F)(F)CC2)n1)c1ccc(NS(=O)(=O)CCO)cc1N1CCC2(CC1)CC2 [Compound 8] | > 30
CS(=O)(=O)Nc1ccc(C(=O)Nc2cn3ccnc3c(N3CCC(F)(F)CC3)n2)c(N2CC3CCC(C3)C2)c1 [Compound 19] | > 30
O=C(Nc1cc2cccnc2c(N2CCC(F)(F)CC2)n1)c1ccc(NS(=O)(=O)CCO)cc1N1CCC2(CC1)CC2 [Compound 21] | > 30
